Values after ≈ are worked out from the molar mass of the structure shown. Like-named read-outs stand apart in the source and are kept apart here.
Assays:
[1] = system: Truep. pyogenes; test: MIC in bacteriological broth (CLSI VET01-A4); format: cell-based, Trueperella pyogenes
Description: (§1) Minimal inhibitory concentrations (MIC) were determined in bacteriological broth according to Clinical and Laboratory Standard Institute (CLSI) guideline VET01-A4 [1]. The MIC results were interpreted according to the CLSI document VET01-S3 [2].

[2] = system: Strep. dysgalactiae; test: MIC in bacteriological broth (CLSI VET01-A4); format: cell-based, Streptococcus dysgalactiae
Description: as §1

[3] = system: coa-neg Staph.; test: MIC in bacteriological broth (CLSI VET01-A4); format: cell-based, coagulase-negative staphylococci
Description: as §1

[4] = system: S. aureus; test: MIC in bacteriological broth (CLSI VET01-A4); format: cell-based, Staphylococcus aureus
Description: as §1

[5] = system: S. aureus; test: MIC in full cream UHT milk with alamar Blue; format: cell-based, Staphylococcus aureus
Description: (§2) For MIC determination in milk, the in vitro activity was determined by measuring the minimum inhibitory concentrations (MIC) according to CLSI document VET01-A4 [1] using full cream UHT milk as test medium. About 2 h before the end of the incubation 10 μL of alamar Blue® was added to each well of the microdilution trays, resulting in a final concentration of 10% of alamar Blue®. Blue color of the medium indicated no living cells (no bacterial growth) red/pink to white color of the medium indicated living cells (bacterial growth). The MIC results were interpreted according to the CLSI document VET01-S3 [2].

[6] = system: mastitis-causing pathogens; test: Antimicrobial activity against mastitis-causing pathogens (overall statement); format: cell-based; conditions: broth-dilution assay and milk
Description: as §1, §2

[7] = system: S. uberis; test: MIC in bacteriological broth (CLSI VET01-A4); format: cell-based, Streptococcus uberis
Description: as §1

[8] = system: Strep. agalactiae; test: MIC in bacteriological broth (CLSI VET01-A4); format: cell-based, Streptococcus agalactiae
Description: as §1

[9] = broth, of 15 Strep. dysgalactiae isolates
[10] = broth, of 15 coa-neg Staph. isolates
[11] = broth, of 15 Staph. aureus isolates
[12] = broth, of 15 Strep. uberis isolates
[13] = broth, of 15 Strep. agalactiae isolates

COC[C@H]1O[C@@H](O[C@@H]2OC[C@@H]3O[C@@]4(OC[C@@H](OC(=O)c5c(C)cc(O)cc5O)[C@@H]5OCO[C@H]54)O[C@H]3[C@H]2O)[C@@H](OC)[C@@H](O)C1O[C@@H]1O[C@H](C)[C@H](OC)[C@H](OC2O[C@H](C)[C@H]3O[C@]4(C[C@@H](O)[C@H](O[C@H]5C[C@@H](O[C@H]6C[C@](C)([N+](=O)[O-])[C@@H](OC)[C@H](C)O6)[C@H](OC(=O)c6c(C)c(Cl)c(O)c(Cl)c6OC)[C@@H](C)O5)[C@@H](C)O4)O[C@]3(C)[C@@H]2O)[C@H]1O (stereo partly drawn) [evernimicin]
MIC50 ([1]; Trueperella pyogenes, bacteriological broth, 15 Truep. pyogenes isolates tested, read-out: MIC50): ≤ 0.063 µg/mL
MIC90 ([1]; Trueperella pyogenes, bacteriological broth, 15 Truep. pyogenes isolates tested, read-out: MIC90): ≤ 0.063 µg/mL
MIC ([1]; Trueperella pyogenes, bacteriological broth, 15 Truep. pyogenes isolates tested, read-out: Maximum MIC): ≤ 0.063 µg/mL
MIC ([1]; Trueperella pyogenes, bacteriological broth, 15 Truep. pyogenes isolates tested, read-out: Minimum MIC): ≤ 0.063 µg/mL
Number of isolates with MIC ≤0.063 μg/mL ([1]; broth, of 15 Truep. pyogenes isolates): 15
MIC50 ([2]; Streptococcus dysgalactiae, bacteriological broth, 15 Strep. dysgalactiae isolates tested, read-out: MIC50): 0.125 µg/mL (≈ 0.0766 µM)
MIC90 ([2]; Streptococcus dysgalactiae, bacteriological broth, 15 Strep. dysgalactiae isolates tested, read-out: MIC90): 0.25 µg/mL (≈ 0.153 µM)
MIC ([2]; Streptococcus dysgalactiae, bacteriological broth, 15 Strep. dysgalactiae isolates tested, read-out: Maximum MIC): 0.25 µg/mL (≈ 0.153 µM)
MIC ([2]; Streptococcus dysgalactiae, bacteriological broth, 15 Strep. dysgalactiae isolates tested, read-out: Minimum MIC): 0.125 µg/mL (≈ 0.0766 µM)
Number of isolates with MIC 0.125 μg/mL [2, 9]: 11
Number of isolates with MIC 0.25 μg/mL [2, 9]: 4
MIC50 ([3]; bacteriological broth, 15 coa-neg Staph. isolates tested, read-out: MIC50): 0.5 µg/mL (≈ 0.306 µM)
MIC90 ([3]; bacteriological broth, 15 coa-neg Staph. isolates tested, read-out: MIC90): 1 µg/mL (≈ 0.613 µM)
MIC ([3]; bacteriological broth, 15 coa-neg Staph. isolates tested, read-out: Maximum MIC): 8 µg/mL (≈ 4.9 µM)
MIC ([3]; bacteriological broth, 15 coa-neg Staph. isolates tested, read-out: Minimum MIC): 0.25 µg/mL (≈ 0.153 µM)
Number of isolates with MIC 0.25 μg/mL [3, 10]: 6
Number of isolates with MIC 0.5 μg/mL [3, 10]: 6
Number of isolates with MIC 1 μg/mL [3, 10]: 2
Number of isolates with MIC 8 μg/mL [3, 10]: 1
MIC50 ([4]; Staphylococcus aureus, bacteriological broth, 15 Staph. aureus isolates tested, read-out: MIC50): 0.5 µg/mL (≈ 0.306 µM)
MIC90 ([4]; Staphylococcus aureus, bacteriological broth, 15 Staph. aureus isolates tested, read-out: MIC90): 0.5 µg/mL (≈ 0.306 µM)
MIC ([4]; Staphylococcus aureus, bacteriological broth, 15 Staph. aureus isolates tested, read-out: Maximum MIC): 0.5 µg/mL (≈ 0.306 µM)
MIC ([4]; Staphylococcus aureus, bacteriological broth, 15 Staph. aureus isolates tested, read-out: Minimum MIC): 0.125 µg/mL (≈ 0.0766 µM)
Number of isolates with MIC 0.125 μg/mL [4, 11]: 1
Number of isolates with MIC 0.25 μg/mL [4, 11]: 2
Number of isolates with MIC 0.5 μg/mL [4, 11]: 12
MIC90 against S. aureus compared with MIC90 of penicillin G [5]: identical
Distribution of MIC values: isolates with MIC 0.125 μg/ml ([5]; S. aureus (n = 20)): 0
Distribution of MIC values: isolates with MIC 0.25 μg/ml ([5]; S. aureus (n = 20)): 0
Distribution of MIC values: isolates with MIC 0.5 μg/ml ([5]; S. aureus (n = 20)): 0
Distribution of MIC values: isolates with MIC 1 μg/ml ([5]; S. aureus (n = 20)): 0
Distribution of MIC values: isolates with MIC 2 μg/ml ([5]; S. aureus (n = 20)): 0
Distribution of MIC values: isolates with MIC 4 μg/ml ([5]; S. aureus (n = 20)): 4
Distribution of MIC values: isolates with MIC 8 μg/ml ([5]; S. aureus (n = 20)): 11
Distribution of MIC values: isolates with MIC 16 μg/ml ([5]; S. aureus (n = 20)): 5
Distribution of MIC values: isolates with MIC 32 μg/ml ([5]; S. aureus (n = 20)): 0
Distribution of MIC values: isolates with MIC 64 μg/ml ([5]; S. aureus (n = 20)): 0
Distribution of MIC values: isolates with MIC >64 μg/ml ([5]; S. aureus (n = 20)): 0
Distribution of MIC values: isolates with MIC ≤0.063 μg/ml ([5]; S. aureus (n = 20)): 0
MIC90 ([5]; Staphylococcus aureus, S. aureus (n = 20), read-out: MIC90): 16 µg/mL (≈ 9.81 µM)
Antimicrobial activity against mastitis-causing pathogens [6]: Good antimicrobial activity
MIC50 ([7]; Streptococcus uberis, bacteriological broth, 15 Strep. uberis isolates tested, read-out: MIC50): 0.25 µg/mL (≈ 0.153 µM)
MIC90 ([7]; Streptococcus uberis, bacteriological broth, 15 Strep. uberis isolates tested, read-out: MIC90): 0.5 µg/mL (≈ 0.306 µM)
MIC ([7]; Streptococcus uberis, bacteriological broth, 15 Strep. uberis isolates tested, read-out: Maximum MIC): 0.5 µg/mL (≈ 0.306 µM)
MIC ([7]; Streptococcus uberis, bacteriological broth, 15 Strep. uberis isolates tested, read-out: Minimum MIC): 0.125 µg/mL (≈ 0.0766 µM)
Number of isolates with MIC 0.125 μg/mL [7, 12]: 2
Number of isolates with MIC 0.25 μg/mL [7, 12]: 10
Number of isolates with MIC 0.5 μg/mL [7, 12]: 3
MIC50 ([8]; Streptococcus agalactiae, bacteriological broth, 15 Strep. agalactiae isolates tested, read-out: MIC50): 0.125 µg/mL (≈ 0.0766 µM)
MIC90 ([8]; Streptococcus agalactiae, bacteriological broth, 15 Strep. agalactiae isolates tested, read-out: MIC90): 0.25 µg/mL (≈ 0.153 µM)
MIC ([8]; Streptococcus agalactiae, bacteriological broth, 15 Strep. agalactiae isolates tested, read-out: Maximum MIC): 0.25 µg/mL (≈ 0.153 µM)
MIC ([8]; Streptococcus agalactiae, bacteriological broth, 15 Strep. agalactiae isolates tested, read-out: Minimum MIC): 0.125 µg/mL (≈ 0.0766 µM)
Number of isolates with MIC 0.125 μg/mL [8, 13]: 12
Number of isolates with MIC 0.25 μg/mL [8, 13]: 3

Reference: patent US12605396B2, “Methods of treating mastitis with an orthosomycin antimicrobial compound” (Intervet Inc., priority 2020, dated 2026)
